Data taken from US12576155B2, “Senolytic and antiinflammatory prodrugs and methods of use thereof” (priority 2019, dated 2026).
Where two headings read alike, the source gives them in different places.

What was measured:
[1] = tested on: GLB1 knockdown (shGLB1-1 and -2) senescent cells; test: Cell viability of GLB1 knockdown senescent cells; format: cell-based; conditions: SSK1 0.5 μM; shGLB1-1 and -2 vs shControl
Experimental: Plasmids used to interfere the expression of GLB1 with short hairpin RNAs (shRNAs) were obtained from Sigma MISSION shRNA. Genetic knockdown was performed according to the manufacturer's protocol.
Lentivirus production, collection, and infection were as described (Zhao et al., Cell Stem Cell 3, 475-479(2008)).
To test the viability of senescent and non-senescent cells treated with SSK1, cells were stained with a mixture of Hoechst 33342 and propidium iodide (PI) (CA1120, Solarbio) to distinguish living and dead cells. After treatment with the small molecules, the cell culture medium was removed, and the cells were washed once with PBS. Then, the cells were stained according to the manufacturer's protocol, where the final concentrations of Hoechst 33342 and PI were 5 μg/ml and 2 μg/ml in PBS buffer. The plate was incubated at 4° C. for 30 min and observed on a fluorescence microscope or automatic cell imaging system. Viable cells were quantified using a MD Image Xpress Micro XL (Molecular Devices).

[2] = tested on: naturally occurring senescent cells of aged mice; test: SSK1 treatment of naturally aged mice (senescent cells, SASP, physical function, RNA-seq); format: in vivo, C57BL/6 mice
Experimental: All drugs were mixed in 90% PBS, 5% Tween-80 (P1754, Sigma), and 5% polyethylene glycol (PEG) (81172, Sigma) and administered to mice by intraperitoneal (i.p.) injection. For treating bleomycin-injured young mice, SSK1 (0.5 mg/kg) or vehicle were given consecutive two days every week for five weeks. For old mice (20-month-old), SSK1 (0.5 mg/kg), gemcitabine (0.5 mg/kg) or vehicle were administrated for continued 3 days every two weeks. Gemcitabine was purchased from MCE.
Cultured cells were washed once with PBS and fixed in β-galactosidase staining fix solution for 15 min at room temperature. Cells were then washed three times with PBS and incubated with β-galactosidase staining solution (Beyotime Biotechnology) for 16-20 hours at 37° C. For 12-well plates, 1 ml of β-galactosidase staining solution was added to each well. The plate was sealed with Parafilm to prevent evaporation of the staining medium. After the overnight incubation, cells were washed with PBS and observed under a bright field microscope. For β-galactosidase staining of frozen sections, the frozen sections were dried at 37° C. for 20-30 min and then fixed in β-galactosidase staining fix solution for 15 min at room temperature. The frozen sections were washed three times with PBS and incubated with β-galactosidase staining solution overnight at 37° C. After completion of β-galactosidase staining, the sections were stained with eosin for 1-2 min, rinsed under running water for 1 min, differentiated in 1% acid alcohol for 10-20 sec, and washed again under running water for 1 min. Sections were dehydrated in increasing concentrations of alcohols and cleared in xylene. Excess xylene was drained and a coverslip was placed over the section. After drying, the sample was observed under a microscope.
Lung, liver, and kidney frozen sections stained with SA-β-Gal were quantified by ImageJ software (NIH) to measure the SA-β-Gal positive area. The total area was quantified by eosin positive area with ImageJ software (NIH). The relative positive SA-β-Gal positive cells were calculated with the SA-β-Gal positive area divided by the total area. Each mouse was measured with 3-5 regions.
Mouse liver tissues were fixed in 4% paraformaldehyde (DingGuo, AR-0211) for 24 h at room temperature and dehydrated with graded sucrose solution (20% and 30% respectively 24 h) before embedded in OCT compound (Sakura) for cryosection. The embedded tissues were cut and affixed on slides. Before immunohistochemical staining, the sections were fixed in 4% paraformaldehyde (DingGuo, AR-0211) at room temperature for 15 min and blocked with PBS containing 0.25% Triton X-100 (Sigma-Aldrich, T8787) and 2% normal donkey serum (Jackson ImmunoResearch Laboratories, 017-000-121) at room temperature for 1 h. Samples for immunofluorescence staining were incubated with primary antibody: anti-F4/80 antibody (Abcam, ab6640) at 4° C. overnight, washed three times with PBS and then incubated with appropriate secondary antibodies: Alexa Fluor® 488 AffiniPure Donkey Anti-Rat IgG (H+L) (Jackson ImmunoResearch Laboratories, 712-545-150) for 1.5 h at 37° C. Nuclei were stained with Hoechst 33342 (Sigma-Aldrich, B2261).
For quantification of F4/80 positive cells, images were randomly taken at 20× magnification at the same exposure using confocal laser endomicroscopy (LSM 710 NLO &DuoScan System) and then analyzed by ImageJ. Each mouse was measured with at least 6-10 regions.
Total RNA was isolated using the Direct-zol RNA MiniPrep Kit (Zymo Research, R2072). RNA was treated with DNase and converted to cDNA using TransScript First-Strand cDNA Synthesis SuperMix (TransGen Biotech, AT311-03). qPCR was performed using Kapa SYBR® FAST qPCR Kit Master Mix (Kapa Biosystems, KM4101) on a CFX Connect™ Real-Time System or CFX96™ Real-Time System (Bio-Rad). Data were analyzed using the 2^(−ΔΔCt) method. Gapdh was used as a control to normalize the expression of target genes. […]

[3] = Serum biochemical test and routine blood analysis in old mice (toxicity); format: in vivo
Experimental: All drugs were mixed in 90% PBS, 5% Tween-80 (P1754, Sigma), and 5% polyethylene glycol (PEG) (81172, Sigma) and administered to mice by intraperitoneal (i.p.) injection. […] […] Gemcitabine was purchased from MCE.
For blood routine examination, 50 μl fresh blood was collected from each mouse and mixed with EDTA immediately. The blood samples were analyzed by Celltac Alpha MEK-6400 series hematology analyzers (Nihon Kohden, MEK-6400). For serum biochemical analysis, blood samples were collected, clotted for 2 hours at room temperature or overnight at 4° C., and then centrifuged (1000 g, 10 min) to gain serum. 200 μl serum was aliquot and analyzed of Alanine transaminase (ALT), aspartate transaminase (AST), uric acid (UA) and creatinine (CREA) by Chemistry Analyzer (Mindray, BS-350E).

[4] = rhesus monkey, in vivo
[5] = 20-month-old mice, SSK1 0.5 mg/kg i.p. intermittently for 8 weeks
[6] = aged mice, SSK1 0.5 mg/kg vs vehicle
[7] = old female mice, 8 weeks, vs vehicle

For `CC(=O)OCC1O[C@@H](Oc2ccc(COC(=O)Nc3ccn([C@@H]4O[C@H](CO)C(O)C4(F)F)c(=O)n3)cc2[N+](=O)[O-])C(OC(C)=O)C(OC(C)=O)[C@H]1OC(C)=O` (stereo partly drawn) [SSK1], the “Effect of GLB1 knockdown on killing of senescent cells by SSK1” value [1] was “impaired the ability of SSK1 to kill SA-β-gal-positive senescent cells”, the “Elimination of β-gal-positive senescent cells vs vehicle, kidney” value [2, 5] was 3.5 fold and the “Elimination of β-gal-positive senescent cells vs vehicle, liver” value [2, 5] was 5.9 fold. For the same compound, the “Elimination of β-gal-positive senescent cells vs vehicle, lung” value [2, 5] was 2 fold, the “GO pathways related to liver function (oxidation-reduction process, metabolic process, fatty acid beta-oxidation, mitochondrion)” value ([2]; aged livers vs vehicle) was “up-regulated” and the “Genes associated with inflammatory response, TNFα signaling via NF-κB, IL6 JAK Stat3 signaling and complement (GSEA)” value ([2]; aged mice livers and kidneys vs vehicle) was “down regulated”. For the same compound, the “Age-associated signature (GSEA) in aged livers and kidneys” value ([2]; aged mice vs vehicle) was “decreased”, the “Expression of senescent markers p16 (in liver) and p21 (in liver and kidney), RT-qPCR” value ([2]; aged mice vs vehicle) was “decreased expression” and the “Inflammatory factors IL1α and IL1β in aged liver and IL6 in aged kidneys, RT-qPCR” value ([2]; aged mice vs vehicle) was “decreased”. For the same compound, the “F4/80 positive macrophages infiltration in livers (immunofluorescence)” value ([2]; aged mice, SSK1 0.5 mg/kg) was “could delete macrophages infiltration”, the “Gene signature associated with senescence (GSEA), livers and kidneys” value [2, 6] was “downregulate” and the “Secretion of SASP factors IL1α, IL6, CXCL1 and TNFα in serum (ELISA)” value [2, 6] was “decreased secretion”. For the same compound, the “Rotarod, treadmill, and grip strength functions vs other senolytic drugs (fisetin, 17-DMAG, ABT263, dasatinib and quercetin)” value ([2]; aged mice, FIG. 4J) was “improved the rotarod, treadmill, and grip strength functions when compared to the other senolytic compounds”, the Body weight ([2]; old female mice, 8 weeks) was “without significant effect on body weight” and the “Balance beam crossing time” value [2, 7] was “decreased”. For the same compound, the Grip strength [2, 7] was “significantly increased”, the Maximal rotarod time [2, 7] was “significantly increased” and the Rearing exploration times [2, 7] was “significantly increased”. The Treadmill distance [2, 7] was “significantly increased”, the “Rotarod, treadmill, and grip strength performance” value ([2]; old male mice, SSK1 0.5 mg/kg vs vehicle) was “same results were also observed” and the “Liver fibrosis (Masson fibrosis staining)” value ([2]; old mice vs vehicle) was “attenuate liver fibrosis”. The “Rotarod and treadmill performance after vs before treatment” value ([2]; old mice, SSK1 0.5 mg/kg) was “improved over the initial state before treatment”, the “Systemic toxicities (serum biochemical test and routine blood analysis)” value ([3]; aged mice, high concentration (100 mg/kg) and high frequency, 5 weeks, 3 injections a week) was “no obvious systemic toxicities” and the “Apoptosis of β-gal positive epithelial tubular cells in the kidney” value ([3]; following SSK1 treatment) was “only a few cells of this tubular cell population was shown to be undergoing apoptosis”. The “System toxicity (serum biochemical test and routine blood analysis)” value ([3]; old mice, 0.5 mg/kg for 8 weeks, FIGS. 7A and B) was “no obvious system toxicity”, the UA ([4]; 0.5 mg/kg) was 9 µmol/L and the UA ([4]; 2 mg/kg) was 10 µmol/L.
